Values quoted from earlier work, collected in paper PMC4021529 (British Journal of Cancer, 2014).
Where two headings read alike, the source gives them in different places.

Test system: advanced solid tumours
Details: phase I trial, advanced solid malignancies, cited from earlier work

Question: For `C[C@@H](Oc1cc(-n2cnc3ccc(CN4CCN(C)CC4)cc32)sc1C(N)=O)c1ccccc1C(F)(F)F` [GSK461364], which objective responses (ref Olmos et al, 2011) is on record?
Answer: no objective responses

Question: Which objective responses (ref Garland et al, 2006) does the source give for `COc1ccc(S(=O)(=O)N(C(C)=O)c2ccccc2/C=C/c2cc[n+]([O-])cc2)cc1` [HMN-214] here?
Answer: no objective responses
